The source of these data is US10421723B2, “2,3-diacylated, 2- and 3-mono-acylated alkylated imino sugars exhibiting glucosidase inhibition and their method of use” (priority 2016, dated 2019).

For one data set, the system named is target viruses. As to conditions: cited from earlier work.
Data set [1] in a line: Stability and conversion in simulated gastric fluid. It counts as in vitro ADME. As to conditions: 4 h, 37° C. As for the experimental part:
The stability of exemplary compounds of the present invention and their conversion to their active derivatives in simulated gastric fluid is evaluated. The working solutions of test compounds and control compound erythromycin were prepared in DMSO at the concentration of 500 μM. 2 μL of the working solution and 198 μL of simulated gastric fluids were added into centrifuge tubes to achieve a final concentration of […] incubated at 37° C. water bath with shaking at approximately 60 rpm. One of the centrifuge tubes was taken at designated time points including 0, 30, 60, 90 and 120 minutes. The assay was performed in duplicate. The reaction was stopped by adding 5 volumes of cold quench solution (acetonitrile containing internal standards (IS, 100 nM Alprazolam, 500 nM Labetalol and 2 μM Ketoprofen)) to the spiked simulated gastric fluids samples at the appointed time points. Another time 0 samples of parent compound were also prepared, and they were used to calculate the conversion percentages of prodrugs to parent compound (used as T0-2). Samples were vortexed for 2 minutes and centrifuged at 20,000 g for 15 minutes at 4° C. to precipitate protein. And then 50 μL of the supernatant was transferred to a new 96-well plate with 100 μL quench solution and 100 μL water for LC-MS/MS analysis.

Data set [2] can be described thus: Stability and conversion in simulated intestinal fluids. It counts as in vitro ADME. As to conditions: 4 h, 5 μM, 37° C. The method, then:
The stability of exemplary compounds of the present invention and their conversion to active derivatives in simulated intestinal fluids is evaluated. The working solutions of test compounds and control compound chlorambucil were prepared in DMSO at the concentration of 500 μM. 2 μL of the working solution and 198 μL of simulated intestinal fluids were added into centrifuge tubes to achieve a final concentration of 5 μM, and incubated at 37° C. water bath with shaking at approximately 60 rpm. One of the centrifuge tubes was taken at designated time points including 0, 1, 2, 3 and 4 hours. The assay was performed in duplicate. The reaction was stopped by adding 5 volumes of cold quench solution (acetonitrile containing internal standards (IS, 100 nM Alprazolam, 500 nM Labetalol and 2 μM Ketoprofen)) to the spiked simulated intestinal fluids samples at the appointed time points. Another time 0 samples of parent compound were also prepared, and they were used to calculate the conversion percentages of prodrugs to parent compound (used as T0-2). Samples were vortexed for 2 minutes and centrifuged at 20,000 g for 15 minutes at 4° C. to precipitate protein. And then 50 μL of the supernatant was transferred to a new 96-well plate with 100 μL quench solution and 100 μL water for LC-MS/MS analysis.

For the compound `CCCC(=O)O[C@H]1CN2CC[C@H](O)[C@@H]2[C@@H](O)[C@@H]1O` [Celgosivir], the “concentrations to achieve EC50 values in tissue culture against their target viruses” value with target viruses was “near millimolar”.
Take `CCCCN1C[C@H](O)[C@@H](O)[C@H](O)[C@H]1CO` [NBDNJ, N-butyl-DNJ]: in the data set on target viruses, the “concentrations to achieve EC50 values in tissue culture against their target viruses” value is listed as “near millimolar”.
Turning to `CCCCOC(=O)OC1CN(CCCCCCN(C(=O)NC(C)(C)C)C2CCCCC2)C(CO)C(O)C1OC(=O)OCCCC` (stereo not shown) [XXVII(a)], in data set [1], the “Stability in Gastric fluids, Remaining” value is given as 93%. The “Stability in Intestinal Fluid, Remaining” value in data set [2] is recorded as 65.7%.
As to `CCCCOC(=O)OC1CN(CCCCCCN(C(=O)NC(C)(C)C)C2CCCCC2)C(CO)C(O)C1O` (stereo not shown) [XXVIII(a)], in data set [1], the “Stability in Gastric fluids, Remaining” value is listed as 98.1%. In data set [2], the “Stability in Intestinal Fluid, Remaining” value is 62.7%.
In the case of `CC(C)COC(=O)OC1CN(CCCCCCN(C(=O)NC(C)(C)C)C2CCCCC2)C(CO)C(O)C1O` (stereo not shown) [XXVIII(b)], the “Stability in Gastric fluids, Remaining” value in data set [1] was 89.2%. The “Stability in Intestinal Fluid, Remaining” value in data set [2] is recorded as 70.9%.
On to `CC(NC(=O)OC(C)(C)C)C(=O)OC1C(O)CN(CCCCCCN(C(=O)NC(C)(C)C)C2CCCCC2)C(CO)C1O` (stereo not shown) [XXX(a)], for which the “Stability in Gastric fluids, Remaining” value in data set [1] was 81.1%. In data set [2], the “Stability in Intestinal Fluid, Remaining” value is 30.7%.
